Patent publication US9616065B2, “Compositions useful in treating brain-related diseases or disorders and methods using same” (priority 2013, dated 2017)
“Also recorded” adds a separate entry of the source. Read-outs that look alike come from different tables or passages of the source.

How the values were obtained:
wild-type human SERT = wild-type human SERT (Homo sapiens, UniProt P31645); assay: MDMA-elicited [3H]-serotonin efflux in COS-7 cells, wild-type; type: cell-based; design: The templates were full-length and nontagged human SERT in pcdna3.1; expressed in transfected cells; host or cells: COS-7 (efflux); settings: for effect on MDMA-elicited efflux: 1 μM modulator
Description: (§1) COS-7 cells were maintained under the same conditions as above. Efflux experiments were performed 2 days after cell transfection with hSERT or empty vector and plating of the cells in 24-well plates. Cells were washed with room temperature PBS-CM and then loaded with 50 nM [^3H]-serotonin for 1 h. After preloading, cells were washed twice with buffer and then incubated for 10 min with or without substrates at room temperature. After incubation, the supernatant was collected, liquid scintillation fluid added, and the samples counted (Beckman LS-6500 Multi-purpose Scintillation Counter; Beckman Coulter, Brea, Calif.). The cells were solubilized in a solution of 0.1% sodium dodecyl sulfate and 0.1 M NaOH; liquid scintillation fluid was added and tubes were counted as above. All assays were done in quadruplicate.
(§2) The percentage of [^3H]-serotonin efflux among different treatments was calculated by adding counts of supernatant plus cell lysis, with the supernatant counts then divided by the total and multiplied by 100 to yield the percentage of efflux.

SERT [1] = molecular target: T1, SERT (Homo sapiens, UniProt P31645); assay: [3H]-serotonin uptake after preincubation with modulator; type: cell-based; settings: for effect on Vmax of serotonin uptake: serotonin uptake kinetics
T1 construct: The templates were full-length and nontagged human SERT in pcdna3.1; expressed in transfected cells; host or cells: COS-7, HEK293 or MDCK (uptake); COS-7 (efflux)
Description: (§3) COS-7, HEK293, and MDCK cells were maintained in Dulbecco modified Eagle medium (3.5 g/l glucose) supplemented with FBS (10% each) at 37° C. with 5% CO2. Uptake experiments were performed 2 days after transfecting DNAs (hSERT, human dopamine transporter [hDAT], chimeras or mutants, or empty vector for background) with TransIT-LT1 (Minis Bio LLC, Madison, Wis., USA) transfection reagent and plating the cells in 24- or 96-well plates.
(§4) The uptake was allowed to continue for 10 min at room temperature and was terminated by washing with PBS-CM. […] Vmax and KM are given as mean±S.D. of three independent experiments. […] EC50 values are given as mean±S.E.M. of at least five independent experiments. Statistical significance between vehicle and drug treatments was assessed using Student t-test or one-way analysis of variance (ANOVA) Dunnett's multiple-comparison test (p<0.05).

hSERT wild-type = molecular target: T2, hSERT wild-type (Homo sapiens, UniProt P31645); assay: Basal/leak [3H]-serotonin efflux in COS-7 cells, wild-type; type: cell-based; settings: no extracellular substrate, read-out: IC50 inhibition of basal/leak efflux
T2 construct: The templates were full-length and nontagged human SERT in pcdna3.1; expressed in transfected cells; host or cells: COS-7 (efflux)
Description: as §1, §2

hDAT = molecular target: T3, hDAT (Homo sapiens, UniProt Q01959); assay: [3H]-dopamine uptake after preincubation with modulator; type: cell-based
T3 construct: expressed in transfected cells; host or cells: COS-7, HEK293 or MDCK
T3 sequence (Q01959 whole entry): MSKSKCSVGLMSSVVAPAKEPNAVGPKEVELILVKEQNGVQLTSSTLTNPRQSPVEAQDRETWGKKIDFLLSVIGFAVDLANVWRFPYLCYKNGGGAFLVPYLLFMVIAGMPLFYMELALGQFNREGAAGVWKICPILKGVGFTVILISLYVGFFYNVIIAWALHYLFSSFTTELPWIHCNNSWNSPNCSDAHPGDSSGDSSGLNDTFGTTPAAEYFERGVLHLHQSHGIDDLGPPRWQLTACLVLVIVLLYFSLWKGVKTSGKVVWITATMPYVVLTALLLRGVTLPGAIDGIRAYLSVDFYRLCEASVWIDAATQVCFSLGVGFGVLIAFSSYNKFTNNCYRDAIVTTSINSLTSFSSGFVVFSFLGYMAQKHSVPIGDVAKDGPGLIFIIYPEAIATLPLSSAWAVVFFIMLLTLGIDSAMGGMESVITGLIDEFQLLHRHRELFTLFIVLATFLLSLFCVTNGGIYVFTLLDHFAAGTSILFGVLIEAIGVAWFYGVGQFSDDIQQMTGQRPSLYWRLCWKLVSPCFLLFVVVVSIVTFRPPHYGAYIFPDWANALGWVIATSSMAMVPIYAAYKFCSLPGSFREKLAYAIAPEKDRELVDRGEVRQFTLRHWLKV
Description: as §3, §4

paroxetine binding sites = paroxetine binding sites (Homo sapiens, UniProt P31645); assay: Paroxetine binding
[2] = molecular target: T4, hSERT 112C mutant (N112C) (Homo sapiens, UniProt P31645, N112C); assay: MDMA-elicited [3H]-serotonin efflux in COS-7 cells, 112C mutant; type: cell-based; settings: for effect on MDMA-elicited efflux: 112C (N112C) mutant, 1 μM modulator
T4 construct: The templates were full-length and nontagged human SERT in pcdna3.1; expressed in transfected cells; host or cells: COS-7 (efflux)
Description: as §1, §2

hSERT 112C mutant = molecular target: T5, hSERT 112C mutant (Homo sapiens, UniProt P31645, N112C); assay: Basal/leak [3H]-serotonin efflux in COS-7 cells, 112C mutant; type: cell-based
T5 construct: The templates were full-length and nontagged human SERT in pcdna3.1; expressed in transfected cells; host or cells: COS-7 (efflux); COS-7, HEK293 or MDCK (uptake)
Description: as §1, §2

SERT [3] = molecular target: T1, SERT; assay: SERT-mediated serotonin uptake inhibition by SSRIs in presence of modulator; type: cell-based; settings: effect weaker than with citalopram
Description: as §3, with “plates. The media was removed and the cells were washed with PBS (137 mM NaCl, 2.7 mM KCl, 4.3 mM Na2HPO4, 1.4 mM KH2PO4, pH 7.4) containing 0.1 mM CaCl2, 1 mM MgCl2, 10 μM clorgyline, 10 μM pargyline, 5 μM RO 41-0960, and 100 μM ascorbic acid (PBS-CM).” for “plates.”
Mutants are functionally tested in transfected COS-7 cells. Based on the success of the approach that identified the A1 site, the critical residues identified elsewhere herein are tested for changes in uptake kinetics and amphetamine-mediated efflux. Following this initial screen, residues displaying altered activity are tested further in uptake inhibition and ligand displacement assays. […] Following uptake, cells are washed and radioactivity is counted using liquid scintillation counting. […] Apparent Km and Vmax are determined using nonlinear regression analysis. The interaction of WT and mutant MAT with psychostimulants and transporter inhibitors is assessed using uptake inhibition assays. […]

SERT E493D mutant = molecular target: T6, SERT E493D mutant (Homo sapiens, UniProt P31645, E493D); assay: SERT function with mutated extracellular gate; type: cell-based
T6 construct: The templates were full-length and nontagged human SERT in pcdna3.1; expressed in transfected cells; host or cells: COS-7

mSERT mutant YETQ-L563V = assay: Substrate-elicited efflux, mSERT mutant YETQ-L563V; type: cell-based, mouse; settings: up to highest testable concentration
Description: (§5) Efflux is terminated by collecting the supernatant. Both cells and supernatant are counted by liquid scintillation counting. Efflux is calculated as ratio of supernatant over supernatant and cells.

SERT [4] = molecular target: T1, SERT; assay: cell-based
Description: as §3, §4

SmSERT = SmSERT (Schistosoma mansoni, UniProt Q3I1M7); assay: Transport inhibition constants, SmSERT; type: cell-based
Sequence of SmSERT (Q3I1M7 entry or part of it): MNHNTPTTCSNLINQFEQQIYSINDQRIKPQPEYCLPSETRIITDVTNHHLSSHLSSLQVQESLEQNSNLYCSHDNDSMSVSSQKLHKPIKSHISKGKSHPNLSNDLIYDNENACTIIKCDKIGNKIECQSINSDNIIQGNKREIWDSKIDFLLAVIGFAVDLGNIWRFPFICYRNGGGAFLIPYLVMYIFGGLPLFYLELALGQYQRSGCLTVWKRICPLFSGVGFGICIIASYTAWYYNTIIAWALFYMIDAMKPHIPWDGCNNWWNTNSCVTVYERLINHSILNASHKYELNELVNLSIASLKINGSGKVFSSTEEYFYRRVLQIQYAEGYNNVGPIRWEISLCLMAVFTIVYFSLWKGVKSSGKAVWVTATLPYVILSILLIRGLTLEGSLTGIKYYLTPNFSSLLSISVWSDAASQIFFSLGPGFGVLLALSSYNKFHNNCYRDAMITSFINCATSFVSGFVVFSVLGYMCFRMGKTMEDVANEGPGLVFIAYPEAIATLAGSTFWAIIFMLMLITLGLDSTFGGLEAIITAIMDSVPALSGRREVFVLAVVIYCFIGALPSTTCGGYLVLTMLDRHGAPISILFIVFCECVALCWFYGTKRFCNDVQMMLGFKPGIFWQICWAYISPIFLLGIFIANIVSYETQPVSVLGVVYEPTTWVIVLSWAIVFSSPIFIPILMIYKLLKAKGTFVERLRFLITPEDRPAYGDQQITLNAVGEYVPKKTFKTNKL

hDAT N93A mutant = molecular target: T7, hDAT N93A mutant (Homo sapiens, UniProt Q01959, N93A); assay: Amphetamine-induced efflux with modulator, hDAT N93A mutant; type: cell-based; settings: low concentrations of amphetamine
T7 construct: expressed in transfected cells; host or cells: COS-7
T7 sequence (Q01959 1-620 N93A): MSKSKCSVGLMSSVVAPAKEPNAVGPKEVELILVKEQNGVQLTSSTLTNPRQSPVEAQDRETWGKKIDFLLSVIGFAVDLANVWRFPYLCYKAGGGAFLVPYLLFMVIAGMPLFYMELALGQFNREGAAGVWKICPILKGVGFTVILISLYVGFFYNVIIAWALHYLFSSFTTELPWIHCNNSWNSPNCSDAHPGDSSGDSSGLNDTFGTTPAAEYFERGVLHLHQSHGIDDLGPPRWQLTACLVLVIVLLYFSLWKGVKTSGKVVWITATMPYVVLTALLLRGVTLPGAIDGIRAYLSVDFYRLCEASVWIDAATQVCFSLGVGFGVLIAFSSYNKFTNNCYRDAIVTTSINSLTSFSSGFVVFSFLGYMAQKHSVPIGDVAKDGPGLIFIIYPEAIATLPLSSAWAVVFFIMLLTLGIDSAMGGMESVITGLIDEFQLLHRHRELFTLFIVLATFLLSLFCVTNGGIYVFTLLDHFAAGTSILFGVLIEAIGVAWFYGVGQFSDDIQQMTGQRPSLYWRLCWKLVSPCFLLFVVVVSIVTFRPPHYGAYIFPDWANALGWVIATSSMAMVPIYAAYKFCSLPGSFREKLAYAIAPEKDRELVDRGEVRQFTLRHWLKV
Description: as §5

WT hDAT = molecular target: T8, WT hDAT (Homo sapiens, UniProt Q01959); assay: Amphetamine-induced efflux with modulator, hDAT WT; type: cell-based; settings: 5 nM amphetamine
T8 construct: expressed in transfected cells; host or cells: COS-7, HEK293 or MDCK
T8 sequence (Q01959 whole entry): as the sequence (Q01959 whole entry) above
Description: as §5

hDAT L89C mutant (L89A) = assay: Dopamine uptake inhibition assay, hDAT L89 mutant; type: cell-based, human
Description: Mutants are functionally tested in transfected COS-7 cells. Based on the success of the approach that identified the A1 site, the critical residues identified elsewhere herein are tested for changes in uptake kinetics and amphetamine-mediated efflux. Following this initial screen, residues displaying altered activity are tested further in uptake inhibition and ligand displacement assays. For uptake, cells are washed with PBSCM (phosphate-buffered saline with 1 mM MgCl, 0.1 mM CaCl2, 100 μM ascorbic acid, 10 μM clorgyline, 100 μM pargyline, and 10 μM RO 41-0960). To initiate uptake, cells are incubated for 10 min at 25° C. with various concentrations of radiolabeled monoamine. Following uptake, cells are washed and radioactivity is counted using liquid scintillation counting. […] Apparent Km and Vmax are determined using nonlinear regression analysis. The interaction of WT and mutant MAT with psychostimulants and transporter inhibitors is assessed using uptake inhibition assays. Cells are transfected as described elsewhere herein, but before uptake is initiated the cells are preincubated with various concentrations of ligand for 10 min. Uptake is initiated and performed as described elsewhere herein.

NET = molecular target: T9, NET (Homo sapiens, UniProt P23975); assay: hNET uptake assay with transporter modulators; type: cell-based
T9 construct: expressed in transfected cells
T9 sequence (P23975 whole entry): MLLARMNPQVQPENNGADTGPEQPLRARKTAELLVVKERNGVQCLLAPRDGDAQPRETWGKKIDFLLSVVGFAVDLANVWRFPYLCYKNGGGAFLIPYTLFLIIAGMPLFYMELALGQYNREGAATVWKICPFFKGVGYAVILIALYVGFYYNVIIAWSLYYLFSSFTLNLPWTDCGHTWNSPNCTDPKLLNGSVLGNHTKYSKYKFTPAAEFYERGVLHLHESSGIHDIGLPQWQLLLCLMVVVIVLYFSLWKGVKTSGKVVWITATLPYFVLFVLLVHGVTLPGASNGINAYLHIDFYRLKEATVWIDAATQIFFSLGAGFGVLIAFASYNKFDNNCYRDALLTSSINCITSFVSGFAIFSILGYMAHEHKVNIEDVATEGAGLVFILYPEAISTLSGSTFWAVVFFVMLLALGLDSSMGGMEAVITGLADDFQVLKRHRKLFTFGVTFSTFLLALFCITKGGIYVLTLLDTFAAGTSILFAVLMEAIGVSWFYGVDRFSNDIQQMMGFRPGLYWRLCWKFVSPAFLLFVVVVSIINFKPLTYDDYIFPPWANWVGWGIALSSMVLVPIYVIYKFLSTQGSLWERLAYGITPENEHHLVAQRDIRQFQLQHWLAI

CN(C)c1ccc(C(C(=O)NCc2ccccc2)N(Cc2cccnc2)C(=O)c2snc(C(N)=O)c2N)cc1 (stereo not shown) [ATM7, 4-amino-N^5-{2-(benzylamino)-1-[4-(dimethylamino)phenyl]-2-oxoethyl}-N^5-(3-pyridinylmethyl)-1,2-thiazole-3,5-dicarboxamide]
effect on affinity for MDMA (wild-type human SERT; 1 μM ATM7): not affected
efficacy of MDMA in eliciting release of intracellular serotonin in the presence of ATM7 (wild-type human SERT; 1 μM ATM7, vehicle treated 380%±10%): 510%±17%
effect on MDMA-elicited efflux (wild-type human SERT): enhanced MDMA-elicited efflux
effect on MDMA-elicited efflux (wild-type human SERT; listed as KM-986): potentiates MDMA-elicited efflux
effect on SERT uptake activity / specificity (SERT [1]): activated serotonin uptake very potently at nanomolar concentrations
shape of concentration response on transporter uptake (SERT [1]): bell-shaped response
activation of serotonin uptake (SERT [1]; dose-response assay): up to 50%
shape of concentration response on transporter uptake (SERT [1]; listed as KM-986): biphasic mode of action, enhancing transporter activity at low concentrations and inhibiting transporter function at higher concentrations
effect on Vmax of serotonin uptake (SERT [1]): did not affect Vmax; also recorded: no effect
effect on Vmax of serotonin uptake (SERT [1]; listed as KM-986): do not observe any effect; also recorded: no effect
effect on hSERT uptake at low and high substrate concentration (SERT [1]; substrate 25 and 100 nM): displayed activity only at low concentrations
IC50 (hSERT wild-type): 0.63 ± 0.31 nM
effect on DAT uptake activity / specificity (hDAT): also DAT activity at higher concentrations
effect on paroxetine binding sites (paroxetine binding sites): decreased
efficacy of MDMA in eliciting release of intracellular serotonin in the presence of ATM7 ([2]; 1 μM ATM7, 112C mutant, vehicle treated 365%±40%): 375%±45%
effect on MDMA-elicited efflux [2]: had no effect on MDMA-elicited efflux
effect on MDMA-elicited efflux ([2]; listed as KM-986): does not show KM-986-mediated potentiation of MDMA-elicited efflux
IC50 (hSERT 112C mutant): 37 ± 25 nM

Cc1cc2nc(-c3ccc(SCC(=O)Nc4ccc(S(=O)(=O)NC5CC5)cc4)nc3)[nH]c2cc1C [ATM1, N-[4-(cyclopropylsulfamoyl)phenyl]-2-{[5-(5,6-dimethyl-1H-benzimidazol-2-yl)-2-pyridinyl]sulfanyl}acetamide]
effect on SERT uptake activity / specificity (SERT [1]): SERT-specific inhibitor
mechanism of SERT inhibition (SERT [1]; Vmax and KM): non-competitive mechanism
effect on SERT uptake activity / specificity (SERT [1]; listed as KM-456): specific for SERT
effect on affinity of fluoxetine for SERT (SERT [3]): decreasing their affinity for SERT
effect on SERT function (SERT E493D mutant): not affected

CNC(C)Cc1ccc2c(c1)OCO2 (racemic) [(±)MDMA, methylenedioxy-methamphetamine]
reversal of transport (efflux) (mSERT mutant YETQ-L563V): did not elicit any significant reversal of transport
Ki (SERT [4]): 2700 ± 500 nM
affinity for MDMA of mutant versus wild-type ([2]; N112C, dose-response experiment with MDMA): reduced by fivefold
Ki (SmSERT): 313000 ± 159000 nM

CCc1ccc2[nH]c3nc(SCCNS(=O)(=O)c4ccc(NC(C)=O)cc4)nnc3c2c1 [ATM5]
effect on amphetamine-elicited efflux (hDAT N93A mutant): blocking amphetamine-elicited efflux; also recorded: blocked
effect on DAT uptake activity / specificity (hDAT): higher activity towards hDAT than hSERT
shape of concentration response on hDAT uptake (hDAT): biphasic activity enhancing hDAT activity at low concentrations and inhibiting hDAT function at higher concentrations
effect on DAT uptake activity / specificity (hDAT; listed as KM-822): specific for DAT
effect on amphetamine-mediated efflux (WT hDAT): potentiated amphetamine-mediated efflux; also recorded: potentiated amphetamine mediated efflux
affinity of mutant for ATM5 versus WT (hDAT L89C mutant (L89A)): increased affinity for ATM5

COc1cccc(NC(=O)Cn2c(SCC(=O)Nc3ccc(F)cc3)nnc2-c2ccncc2)c1 [KM-409, N-(4-fluorophenyl)-2-((4-(2-((3-methoxyphenyl)amino)-2-oxoethyl)-5-(pyridin-4-yl)-4H-1,2,4-triazol-3-yl)thio)acetamide]
activity towards NET (NET): displayed activity towards NET
